# In patent publication US20220378780A1, “PHARMACEUTICAL COMPOSITIONS COMPRISING POH DERIVATIVES” (NeOnc Technologies, Inc., priority 2019, published 2022):
# “Also recorded” adds a separate entry of the source. Like-named read-outs stand apart in the source and are kept apart here.
# Experiments:
# [1] = test system: CHOP, c-myc and cyclin D in HUT78, HUT102 and MyLa cells; assay: Western blot of ER stress and proliferation markers; type: cell-based, human; conditions: for lowest concentration triggering near-maximal CHOP induction: 72 hours
# Excerpt: (§1) 2. Material and methods 2.1. […] 2.2. […] 2.3. […] 2.4. […] 2.5.
# [2] = test system: TMZ resistant (U251TR) U251 cells; assay: Colony forming assay, TMZ resistant U251TR; type: cell-based, human
# Description: (§2) Colony forming assays were carried out after cells were treated with TMZ alone, POH alone, and the TMZ-POH conjugate. […] Cancer Lett. 2011 Mar. 28; 302(2):100-8.
# [3] = test system: USC-02 glioma cancer stem cells; assay: MTT cytotoxicity assay, USC-02; type: cell-based; conditions: USC-02, MTT
# Excerpt: (§3) Cancer Lett. 2011 Mar. 28; 302(2):100-8.
# [4] = test system: brain endothelial cells (BEC; confluent and subconfluent); assay: MTT cytotoxicity assay, brain endothelial cells; type: cell-based
# Excerpt: as §3
# [5] = test system: tumor brain endothelial cells (TuBEC); assay: MTT cytotoxicity assay, tumor brain endothelial cells; type: cell-based
# Excerpt: as §3
# [6] = test system: HUT78 cells; assay: MTT cell viability assay, HUT78 (Example 15)
# Description: Pharmacological agents—NEO212 was dissolved in DMSO at 100 mM. TMZ was purchased from Sigma Aldrich (St. Louis, Mo.) and dissolved in DMSO (Santa Cruz Biotechnology, Dallas, Tex.) to a concentration of 50 mM. POH was purchased from Sigma-Aldrich and diluted in DMSO to 100 mM. […] Stock solutions of all drugs were stored at −20° C. Staurosporine (STSP) was purchased from Selleck Chemicals (Houston, Tex.), stored at 4° C. protected from light, and dissolved in DMSO before use. Ascorbic acid (AA) and beta-mercaptoethanol (b-ME) (Sigma Aldrich) were prepared fresh before use. Crystalline AA was dissolved in phosphate-buffered saline (PBS) to 25 mM; b-ME was diluted in medium to 25 mM. […] Cell lines—Three different human CTLC cell lines were used. […] Both media also contained 100 U/mL penicillin and 0.1 mg/mL streptomycin. Penicillin, streptomycin, and RPMI (prepared with raw materials from Cellgro/MediaTech, Manassas, Va.) were provided by the Cell Culture Core lab of the USC/Norris Comprehensive Cancer Center. […] Cells were kept in a humidified incubator at 37° C. and a 5% CO2 atmosphere. FBS was obtained from Omega Scientific (Tarzana, Calif.) and from X&Y Cell Culture (Kansas City, Mo.). […] MTT assay—Methylthiazoletetrazolium (MTT) assays were performed as follows. Cells were seeded into 96-well plates in a volume of 50 μL per well at 3.0-5.0×10^5 cells/mL. An additional 50 μL of medium containing various concentrations of drug (or vehicle) was added and the cells were incubated for different lengths of time. This was followed by the addition of 10 μL thiazolyl-blue tetrazolium (i.e., MTT; Sigma Aldrich) from a stock solution of 5 mg/mL in phosphate-buffered saline (PBS). Cells were returned to the incubator for 4 hours. Thereafter, the reaction was stopped and the cells were lysed by the addition of 100 μL solubilization solution (10% sodium dodecyl sulfate in 0.01 M hydrochloric acid). The 96-well plate was left in the cell culture incubator over night for complete solubilization of the MTT crystals, and the optical density (OD) of each well was determined the next day in an ELISA plate reader at 560 nm. The background value (=OD of control wells containing medium without cells+MTT+solubilization solution) was subtracted from all measured values. In individual experiments, each treatment condition was set up in quadruplicate, and each experiment was repeated several times independently. […] Cell proliferation analysis—Cell proliferation was assessed by counting cells over time. Independent cell cultures were exposed to different concentrations of NEO212. At different times, aliquots of cells were removed, mixed with Trypan blue, and counted in a hemocytometer. Blue cells were considered dead, whereas unstained cells were counted as live cells. […] Fluorescence-activated cell sorting (FACS) analysis—Cells were seeded in 6-well tissue culture plates at 2×10^5 cells/mL, followed by drug treatment. After 72 hours, cells were collected, washed twice with PBS, transferred to a microcentrifuge tube, and suspended in 200 μL of 1× binding buffer solution, which was made fresh from 10x binding buffer (0.2 μm sterile-filtered 0.1 M HEPES, pH 7.4; 1.4 M NaCl; 25 mM CaCl2)). Then 1 μL of a 1 mg/mL 7-amino-actinomycin D (7-AAD) solution (Thermo Fisher Scientific, Waltham, Mass.) was added. After 20 minutes of incubation on ice, cell fluorescence was analyzed on a FACSAria Flow Cytometer (Becton Dickinson Biosciences Ltd., Franklin Lakes, N.J.).
# [7] = test system: HuT 78 cells; assay: MTT assay on HuT 78 cells (Example 14); conditions: HuT 78, 72 hours
# Description: HuT 78 cells are cutaneous T lymphocytes derived from a patient with Sézary syndrome.
# HuT 78 cells were treated in vitro with (i) temozolomide (50, 100, 250 μM), (ii) POH-TMZ conjugate (“NEO212”, 25, 50, 100 μM), (iii) NEO412 which is the triple conjugate of temozolomide (TMZ), perillyl alcohol (POH), and linoleic acid (25, 50, 100, 250 μM), or (iv) vehicle alone. Seventy-two hours after the addition of drugs or vehicle, cell viability was determined by standard MTT (methylthiazoletetrazolium) assay.
# [8] = test system: HUT78 cells; assay: Cell proliferation by Trypan blue exclusion counting, HUT78; type: cell-based, human; conditions: HUT78, 1 μM
# Excerpt: as §1
# [9] = Toxicity studies in mice; type: in vivo
# Excerpt: (§4) Compared to both of its individual components, TMZ and POH, NEO212 exerts substantially greater cytotoxic activity, potentially via involvement of the pro-apoptotic module of the ER stress response mechanism, although its alkylating activity might contribute as well. As a next step in NEO212's development, in vivo experiments in immunodeficient murine CTCL models should be performed. We have attempted such models, but tumor take with our CTCL cell lines was unacceptably low, not inconsistent with reported challenges of achieving consistent tumor growth with these and other CTCL cell lines in general^57-59 It is conceivable that serial passage of positive tumors in mice would yield more aggressive cells, and we are considering pursuing this approach.
# [10] = test system: ER stress (CHOP) in TMZ sensitive and resistant U251 glioma cells; assay: Western blot of ER stress (CHOP) in U251 glioma cells; type: cell-based, human; conditions: 18 hr treatment
# Description: TMZ sensitive and resistant glioma cells Western blots were performed after TMZ sensitive and resistant glioma cells were treated with the TMZ-POH conjugate for 18 hr. […] Activation of the proapoptic protein CHOP was shown at concentrations as low as 60 uM of TMZ-POH.
# [11] = test system: normal astrocytes; assay: MTT cytotoxicity assay, normal astrocytes; conditions: listed as TMZ-POH
# Description: (§5) MTT cytotoxicity assays were carried out after cells were treated with the TMZ-POH conjugate. The MTT cytotoxicity assays were carried out as described in Chen TC, et al. Green tea epigallocatechin gallate enhances therapeutic efficacy of temozolomide in orthotopic mouse glioblastoma models. Cancer Lett. 2011 Mar. 28; 302(2):100-8.
# [12] = test system: TMZ sensitive cells (U251); assay: MTT cytotoxicity assay, U251
# Description: as §5
# [13] = test system: TMZ resistant cells (U251TR); assay: MTT cytotoxicity assay, U251TR
# Description: as §5
# [14] = test system: cleaved PARP and cleaved caspases 3 and 4 in HUT78, HUT102 and MyLa cells; assay: Western blot of apoptosis markers (cleaved PARP-1, cleaved caspases); type: cell-based, human
# Excerpt: as §1
# [15] = test system: MyLa cells; assay: Cell proliferation by Trypan blue exclusion counting, MyLa; type: cell-based, human; conditions: 1 μM
# Excerpt: as §1
# [16] = Toxicity studies in Beagle dogs; type: in vivo; conditions: Beagle dogs (unpublished)
# Excerpt: as §4
# [17] = test system: HUT78 cells; assay: FACS analysis of cell death with 7-AAD; type: cell-based, human; conditions: 72 hours
# Excerpt: as §1
# [18] = test system: MyLa cells; assay: MTT cell viability assay, MyLa (Example 15); type: cell-based, human
# Excerpt: as §1
# [19] = test system: HUT102 cells; assay: Cell proliferation by Trypan blue exclusion counting, HUT102; type: cell-based, human; conditions: HUT102, 1 μM
# Excerpt: as §1
# [20] = test system: U87, A172 and U251 human glioma cells; assay: MTT cytotoxicity assay on human malignant glioma cells; type: cell-based
# Excerpt: In vitro efficacy of the present composition can be determined using methods well known in the art. For example, the cytotoxicity of the present monoterpene (or sesquiterpene) and/or the therapeutic agents may be studied by MTT [3-(4,5-dimethylthiazol-2-yl)-2,5-diphenyl tetrazolium bromide] cytotoxicity assay. MTT assay is based on the principle of uptake of MTT, a tetrazolium salt, by metabolically active cells where it is metabolized into a blue colored formazon product, which can be read spectrometrically. J. of Immunological Methods 65: 55 63, 1983. The cytotoxicity of the present monoterpene (or sesquiterpene) derivative and/or the therapeutic agents may be studied by colony formation assay. Functional assays for inhibition of VEGF secretion and IL-8 secretion may be performed via ELISA. Cell cycle block by the present monoterpene (or sesquiterpene) derivative and/or the therapeutic agents may be studied by standard propidium iodide (PI) staining and flow cytometry. Invasion inhibition may be studied by Boyden chambers. In this assay a layer of reconstituted basement membrane, Matrigel, is coated onto chemotaxis filters and acts as a barrier to the migration of cells in the Boyden chambers. Only cells with invasive capacity can cross the Matrigel barrier. Other assays include, but are not limited to cell viability assays, apoptosis assays, and morphological assays.
# Then U87, A172 and U251 cells were treated with dimethyl celecoxib bisPOH carbamate (POH-DMC) (e.g., synthesized by the method in Example 1), and the MTT cytotoxicity assays performed (FIG. 2).
# Then TMZ-resistant glioma cell lines U87, A172 and U251 cells were treated with temozolomide POH carbamate (POH-TMZ) (e.g., synthesized by the method in Example 3).
# [21] = test system: USC-04 glioma cancer stem cells; assay: MTT cytotoxicity assay, USC-04; type: cell-based; conditions: USC-04, MTT
# Excerpt: as §3
# [22] = test system: TMZ sensitive (U251) cells; assay: Colony forming assay, TMZ sensitive U251; type: cell-based, human
# Description: as §2
# [23] = test system: HUT102 cells; assay: MTT cell viability assay, HUT102 (Example 15); type: cell-based, human
# Excerpt: as §1
smiles,measurement,setting,value
C=C(C)C1CC=C(COC(=O)NC(=O)c2ncn3c(=O)n(C)nnc23)CC1 (centres unmarked) [NEO212],lowest concentration triggering near-maximal CHOP induction,[1]; HUT78 cells,0.1 µM
same,expression levels of c-myc and cyclin D proteins,[1]; HUT102 and MyLa cells,declined
same,lowest concentration triggering near-maximal CHOP induction,[1]; HUT102 cells,1.0 µM
same,concentration dependence of CHOP induction,"[1]; MyLa cells, 96 hours",gradual increase all the way up to 100 μM
same,induction of CHOP protein,[1]; all three CTCL cell lines,prominent induction of CHOP protein
same,cytotoxicity in colony forming assay,[2]; listed as POH-TMZ,substantially greater potency compared to POH alone
same,cytotoxicity in colony forming assay,[2]; listed as TMZ-POH,demonstrated cytotoxicity
same,IC50,[3],60 µM
same,cytotoxicity in MTT assay,[4]; confluent BEC,did not induce significant cytotoxicity
same,cytotoxicity in MTT assay,"[4]; subconfluent BEC, high concentrations",Mild to moderate cytotoxicity
same,cytotoxicity in MTT assay,[5],did not induce significant cytotoxicity
same,reduction of viability,"[6]; HUT78, 10 μM",over 50%
same,concentration of earliest effect on viability,"[6]; HUT78, 24 hours, as low as",3 µM
same,IC50,"[6]; HUT78, 48 hours",< 3 µM
same,IC50,"[6]; HUT78, 72 hours",~4 µM
same,potency relative to that of TMZ,[6]; HUT78 cells,over 100 fold
same,IC50,"[6]; read-out: IC50 (50% decrease in viability), HUT78, 24 hours",8 µM
same,cytotoxic effect on MF cells in MTT assay,[7],pronounced cytotoxic effect
same,proliferation-inhibitory effect,[8],strongest effect
same,tolerability,[9],very well tolerated
same,concentration at which activation of CHOP was shown,[10]; as low as,60 µM
same,induction of ER stress (ERS),[10]; western blot,induces ER stress
same,cytotoxicity in MTT assay,[11],not towards normal astrocytes; also recorded: did not induce significant cytotoxicity
same,cytotoxicity in MTT assay,[12],demonstrated cytotoxicity
same,cytotoxicity in MTT assay,[13],demonstrated cytotoxicity
same,concentration at which apoptosis markers emerged,[14]; HUT78 and HUT102 cells,0.1 to 1.0 µM
same,concentration required for apoptosis markers,[14]; MyLa cells,30 µM
same,induction of apoptosis markers,[14]; all three CTCL cell lines,"appearance of cleaved PARP and cleaved (i.e., activated) caspases 3 and 4"
same,proliferation-inhibitory effect,[15],weaker activity
same,tolerability,[16],very well tolerated
same,cell death,"[17]; HUT78, 1 μM",33%
same,cell death,"[17]; HUT78, 30 μM",50%
same,IC50,[18]; 72 hours,~130 µM
same,IC50,[18]; 96 hours,~85 µM
same,proliferation-inhibitory effect,[19],slightly less pronounced activity
same,cytotoxicity in MTT assay,[20],substantially higher kill rates
same,IC50,[21],150 µM
same,cytotoxicity in colony forming assay,[22]; listed as POH-TMZ,substantially greater potency compared to POH alone
same,cytotoxicity in colony forming assay,[22]; listed as TMZ-POH,demonstrated cytotoxicity
same,IC50,"[23]; HUT102, 72 hours",9 µM
same,IC50,"[23]; HUT102, 96 hours",3 µM
